Marks after values point to notes of the source that are not given here.
How the values were obtained:
[1] = tested on: subjects with heterozygous familial hypercholesterolemia; test: 24-week randomised double-blind Phase III trial of ZD4522 versus atorvastatin: efficacy (lipids, guideline targets, CRP); assay type: in vivo, human; conditions: for mean % reduction in LDL-C / Percentage subjects reaching EAS target for LDL-C levels at Week 18, high-risk / Percentage subjects reaching EAS target for LDL-C levels at Week 18, overall / Percentage subjects reaching NCEP target for LDL-C levels at Week 18, high-risk / Percentage subjects reaching NCEP target for LDL-C levels at Week 18, overall / Percentage change from baseline to Week 18 in inflammatory marker CRP / Lsmean of percentage change from baseline to Week 18 in ApoA-I / Lsmean of percentage change from baseline to Week 18 in ApoB / Lsmean of percentage change from baseline to Week 18 in ApoB/ApoA-I ratio / Lsmean of percentage change from baseline to Week 18 in HDL-C / Lsmean of percentage change from baseline to Week 18 in LDL-C / Lsmean of percentage change from baseline to Week 18 in LDL-C/HDL-C ratio / Lsmean of percentage change from baseline to Week 18 in Non-HDL-C/HDL-C ratio / Lsmean of percentage change from baseline to Week 18 in TC / Lsmean of percentage change from baseline to Week 18 in TC/HDL-C ratio / Lsmean of percentage change from baseline to Week 18 in TG: HeFH subjects; for mean % reduction in LDL-C / Percentage subjects reaching EAS target for LDL-C levels at Week 18, high-risk / Percentage subjects reaching EAS target for LDL-C levels at Week 18, overall / Percentage subjects reaching NCEP target for LDL-C levels at Week 18, high-risk / Percentage subjects reaching NCEP target for LDL-C levels at Week 18, overall / Percentage change from baseline to Week 18 in inflammatory marker CRP: 20/40/80 mg; for mean % reduction in LDL-C: primary efficacy analysis; for Percentage subjects reaching EAS target for LDL-C levels at Week 18, high-risk / Percentage subjects reaching EAS target for LDL-C levels at Week 18, overall / Percentage subjects reaching NCEP target for LDL-C levels at Week 18, high-risk / Percentage subjects reaching NCEP target for LDL-C levels at Week 18, overall / Lsmean of percentage change from baseline to Week 18 in ApoA-I / Lsmean of percentage change from baseline to Week 18 in ApoB / Lsmean of percentage change from baseline to Week 18 in ApoB/ApoA-I ratio / Lsmean of percentage change from baseline to Week 18 in HDL-C / Lsmean of percentage change from baseline to Week 18 in LDL-C / Lsmean of percentage change from baseline to Week 18 in LDL-C/HDL-C ratio / Lsmean of percentage change from baseline to Week 18 in Non-HDL-C/HDL-C ratio / Lsmean of percentage change from baseline to Week 18 in TC / Lsmean of percentage change from baseline to Week 18 in TC/HDL-C ratio / Lsmean of percentage change from baseline to Week 18 in TG: Week 18, LOCF on ITT population; for Percentage change from baseline to Week 18 in inflammatory marker CRP: Week 18, observed data; for Lsmean of percentage change from baseline to Week 18 in ApoA-I / Lsmean of percentage change from baseline to Week 18 in ApoB / Lsmean of percentage change from baseline to Week 18 in ApoB/ApoA-I ratio / Lsmean of percentage change from baseline to Week 18 in HDL-C / Lsmean of percentage change from baseline to Week 18 in LDL-C / Lsmean of percentage change from baseline to Week 18 in LDL-C/HDL-C ratio / Lsmean of percentage change from baseline to Week 18 in Non-HDL-C/HDL-C ratio / Lsmean of percentage change from baseline to Week 18 in TC / Lsmean of percentage change from baseline to Week 18 in TC/HDL-C ratio / Lsmean of percentage change from baseline to Week 18 in TG: oral once daily, forced titration 20/40/80 mg
Experimental: We have conducted a Phase III trial designed to assess the efficacy of ZD4522 in subjects with HeFH. The dose-response of ZD4522 was compared with atorvastatin using the percentage change from baseline in LDL-C levels as the primary end-point. Doses of ZD4522 up to 80 mg per day were use& Atorvastatin was chosen as the comparator statin in this trial because it has the best LDL-C lowering activity of the currently marketed statins.
The primary objective was to compare the efficacy of ZD4522 (titrated to 80 mg) with that of atorvastatin (titrated to 80 mg) in reducing low-density lipoprotein cholesterol (LDL-C) levels in subjects with heterozygous familial hypercholesterolemia (HeFH) after 18 weeks of treatment.
Population: A total of 265 (200 in the ZD4522 group, 65 in the atorvastatin group) randomised to and evaluable subjects with documented heterozygous F, derived from approximately 1240 recruited subjects, were required to enable 80% power in detecting a 6% difference between groups in the percentage change from baseline in LDL-C levels.
Key exclusion criteria: Various concomitant illnesses, including active liver disease or hepatic dysfunction (defined by an alanine aminotransferase [ALT], aspartate amninotransferase [AST] or bilirubin concentration […] of normal [ULN]), active arterial disease, history of malignancy (unless basal or squamous cell skin carcinoma), uncontrolled hypertension, and uncontrolled hypothyroidism; serum creatine kinase (CK) concentration >3×ULN; usage of concomitant medications known to affect the lipid profile or present a potential safety concern (for example, through drug interaction).
Efficacy: Fasting LDL-C, total cholesterol (TC), high-density lipoprotein cholesterol (HDL-C), and TG were assessed at, Weeks 0, 2, 6, 12, and 18; fasting apolipoprotein (ApoB) and apolipoprotein A-I (ApoA-I) were assessed at Weeks 0 and 18; C-reactive protein (CRP) was assessed at Weeks 0 and 18. Dietary compliance throughout the trial was assessed and evaluated.
The primary end-point was the percentage change from baseline to Week 18 in LDL-C levels, and was analysed using analysis of variance (ANOVA) on last observations carried forward (LOCF) from an intention-to-treat (ITT) population; the initial ANOVA model included terms for treatment, center, and center-by-treatment interaction. Additional analyses using observed data from ITT and per-protocol (PP) populations were used to confirm the robustness of the Main ITT analysis.
Percentage changes from baseline in the other lipids and lipoproteins were secondary end-points of the trial and were analysed using ANOVA. The other secondary end-points of the percentage of subjects in the ITT population who achieved targets for LDL-C levels specified by the National Cholesterol Education Program (NCEP) or the European Atherosclerosis Society (EAS), and the percentage change from baseline in the inflammatory marker CRP, were summarised only.

[2] = tested on: subjects with heterozygous familial hypercholesterolemia; test: 24-week randomised double-blind Phase III trial of ZD4522 versus atorvastatin: safety assessments; conditions: HeFH subjects, 20/40/80 mg, safety population
Experimental: A further secondary objective was to determine the safety of ZD4522.
Design: A 24-week, randomised, double-blind, 2-group, parallel-group, forced-titration, multicentre, multinational trial. After a 6-week dietary lead-in period, subjects were randomised to treatment with either ZD4522 20 mg, or atorvastatin 20 mg for 6 weeks. Following this initial treatment period, all subjects with an LDL-C level >1.3 mmol/L (50 mg/dL) were force-titrated at 6-week intervals as follows; from ZD4522 20 to 40 to 80 mg, and from atorvastatin 20 to 40 to 80 mg. The maximum titrated dose of either treatment after 18 weeks was 80 mg.
Dosage: Subjects took oral doses of trial treatment once daily, approximately 3 hours after the evening meal. Doses of treatments were as follows; ZD4522 20, 40, and 80 mg, atorvastatin 20, 40, and 80 mg. Subjects had their doses titrated up at 6-week intervals in a sequential manner, if appropriate.
Safety: Standard safety assessments included adverse event pot clinical laboratory data (hepatic biochemistry, CK, renal biochemistry, haematology, urinalysis), vital signs, electrocardiograms (ECGs) and physical examination.

Row | SMILES | mean % reduction in LDL-C ([1]; 18 weeks, LOCF) [%] | Percentage subjects reaching EAS target for LDL-C levels at Week 18, high-risk [1] [%] | Percentage subjects reaching EAS target for LDL-C levels at Week 18, overall [1] [%] | Percentage subjects reaching NCEP target for LDL-C levels at Week 18, high-risk [1] [%] | Percentage subjects reaching NCEP target for LDL-C levels at Week 18, overall [1] [%] | Percentage change from baseline to Week 18 in inflammatory marker CRP [1] [%] | Lsmean of percentage change from baseline to Week 18 in ApoA-I [1] | Lsmean of percentage change from baseline to Week 18 in ApoB [1] | Lsmean of percentage change from baseline to Week 18 in ApoB/ApoA-I ratio [1] | Lsmean of percentage change from baseline to Week 18 in HDL-C [1] | Lsmean of percentage change from baseline to Week 18 in LDL-C [1] | Lsmean of percentage change from baseline to Week 18 in LDL-C/HDL-C ratio [1] | Lsmean of percentage change from baseline to Week 18 in Non-HDL-C/HDL-C ratio [1] | Lsmean of percentage change from baseline to Week 18 in TC [1] | Lsmean of percentage change from baseline to Week 18 in TC/HDL-C ratio [1] | Lsmean of percentage change from baseline to Week 18 in TG [1] | further results
1 | CC(C)c1nc(N(C)S(C)(=O)=O)nc(-c2ccc(F)cc2)c1/C=C/[C@@H](O)C[C@@H](O)CC(=O)O [ZD4522, (E)-7-[4-(4-fluorophenyl)-6-isopropyl-2-[methyl(methylsulfonyl)amino]pyrimidin-5-yl](3R,5S)-3,5-dihydroxyhept-6-enoic acid] | 57.88 | 47.5 | 47.4 | 23.9 | 60.5 | 25.21 | 5.86^b % | −50.21^b % | −52.03^b % | 12.36^b % | −57.88^b % | −61.69^b % | −59.40^b % | −46.35^b % | −51.44^b % | −27.82^ns % | difference between treatments in % reduction in LDL-C (versus atorvastatin 20/40/80 mg) ([1]; 18 weeks, LOCF, ZD4522 20/40/80 mg versus atorvastatin 20/40/80 mg): > 6%
2 | CC(C)c1c(C(=O)Nc2ccccc2)c(-c2ccccc2)c(-c2ccc(F)cc2)n1CC[C@@H](O)C[C@@H](O)CC(=O)O [Atorvastatin, atorvastatin] | 50.41 | 24.2 | 24.1 | 3.2 | 46.0 | 31.28 | −2.33^b % | −44.44^b % | −42.46^b % | 2.91^b % | −50.41^b % | −51.16^b % | −49.86^b % | −42.13^b % | −43.17^b % | −31.60^ns % | clinically significant elevations (≧10×ULN) in CK [2]: no clinically significant elevations; incidence of clinically significant elevations in ALT (≧3×ULN) [2]: 1.1%; number of patients with clinically significant elevations in ALT (≧3×ULN) [2]: 2 patients; overall incidence of AEs (including treatment-related AEs, AEs leading to withdrawals and SAEs) [2]: 65.8%
